Measurements as given in patent publication US20030186978A1, “Novel telomerase inhibitors” (priority 2000, published 2003).

Target: telomerase enzyme (Homo sapiens, UniProt O14746)
Test: Flash Plate-based telomerase assay
Type: biochemical
Conditions: two hours of incubation at 37°; only indicative, obtained during screening by fitting a limited number of experimental points
Description: The telomerase activity of the compounds of the invention has been evaluated using a Flash Plate-based assay. […] Other methods for determining the inhibitory concentration of a compound of the invention against telomerase can be employed as will be apparent to a person skilled in the art based on the disclosure herein.
Briefly, the assay mixture is costituted by:
telomerase enzyme diluted in a buffer, the composition of which has been selected to maintain the enzyme activity stable along the duration of the assay.
dNTPs, deoxynucleotides 5′-triphosphate.
biotynilated oligo as primer.
increasing concentrations of test compounds/positive control.
After two hours of incubation at 37° degrees the telomeric repeats added are evaluated by hybridization in solution with a 3′-labeled short oligonucleotide probe. The extent of hybridization is then quantitated by transferring the reaction mixture in a streptavidin-coated flash plate, where the binding between biotin and streptavidin occurs. The telomerase activity is proportional to the radioactivity measured and the inhibitory activity of the compounds is evaluated as IC50 using the Sigma Plot fit program. With the above-described method, IC50 values of the compounds of the present invention were determined. The data reported in Table 1 are only indicative since obtained during the screening by fitting a limited number of experimental points.

Chain of telomerase enzyme (O14746 whole entry): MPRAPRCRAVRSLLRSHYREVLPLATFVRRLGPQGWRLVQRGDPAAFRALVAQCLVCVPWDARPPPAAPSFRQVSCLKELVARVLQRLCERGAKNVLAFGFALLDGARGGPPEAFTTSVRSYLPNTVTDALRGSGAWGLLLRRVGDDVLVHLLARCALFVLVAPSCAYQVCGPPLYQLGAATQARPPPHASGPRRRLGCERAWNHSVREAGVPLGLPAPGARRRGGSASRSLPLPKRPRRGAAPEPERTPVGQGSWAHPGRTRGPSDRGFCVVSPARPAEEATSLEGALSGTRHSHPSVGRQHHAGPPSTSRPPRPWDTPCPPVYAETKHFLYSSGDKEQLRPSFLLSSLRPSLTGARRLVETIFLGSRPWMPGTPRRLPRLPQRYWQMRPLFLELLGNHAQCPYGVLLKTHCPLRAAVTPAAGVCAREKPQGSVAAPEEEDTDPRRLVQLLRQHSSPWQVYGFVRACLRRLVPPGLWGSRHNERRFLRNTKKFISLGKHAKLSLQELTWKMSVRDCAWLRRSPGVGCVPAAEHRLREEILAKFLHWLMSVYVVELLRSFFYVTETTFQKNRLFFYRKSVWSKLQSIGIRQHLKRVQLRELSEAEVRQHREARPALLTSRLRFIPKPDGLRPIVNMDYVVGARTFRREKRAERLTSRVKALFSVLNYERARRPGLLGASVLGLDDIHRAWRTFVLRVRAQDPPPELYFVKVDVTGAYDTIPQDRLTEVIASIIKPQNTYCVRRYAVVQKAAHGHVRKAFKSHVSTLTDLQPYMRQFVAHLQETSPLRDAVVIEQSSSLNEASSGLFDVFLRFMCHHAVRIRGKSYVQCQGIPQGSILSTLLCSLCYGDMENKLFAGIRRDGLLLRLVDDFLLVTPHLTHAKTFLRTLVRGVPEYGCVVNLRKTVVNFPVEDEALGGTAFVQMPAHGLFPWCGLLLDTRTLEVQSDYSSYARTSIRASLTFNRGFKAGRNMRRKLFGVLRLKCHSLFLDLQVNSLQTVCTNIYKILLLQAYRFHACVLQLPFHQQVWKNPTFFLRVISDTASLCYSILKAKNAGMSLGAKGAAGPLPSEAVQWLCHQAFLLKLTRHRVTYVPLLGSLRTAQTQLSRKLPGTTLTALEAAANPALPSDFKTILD

Structure (SMILES) | IC50
COC(=O)c1cccc(Cn2c(N)nc(=O)c3c2ncn3Cc2ccc3ccccc3c2)c1 [Compound 29, Methyl 3-{[2-amino-7-(2-naphthylmethyl)-6-oxo-6,7-dihydro-3H-purin-3-yl]methyl}benzoate] | 21 µM
Nc1nc(=O)c2c(ncn2Cc2ccc(Cl)c(Cl)c2)n1Cc1ccc(Cl)c(Cl)c1 [Compound 4, 2-amino-3,7-bis(3,4-dichlorobenzyl)-3,7-dihydro-6H-purin-6-one] | 4 µM
Nc1nc(=O)c2c(ncn2Cc2ccc3ccccc3c2)n1Cc1ccc2ccccc2c1 [Compound 1, 2-amino-3,7-bis(2-naphthylmethyl)-3,7-dihydro-6H-purin-6-one] | 4 µM
Nc1nc(=O)c2c(ncn2Cc2ccc(-c3ccccc3)cc2)n1Cc1ccc2ccccc2c1 [Compound 6, 2-amino-3-(2-naphthylmethyl)-7-([1,1′-biphenyl]-4-ylmethyl)-3,7-dihydro-6H-purin-6-one] | 2 µM
Nc1nc(=O)c2c(ncn2Cc2ccc3ccccc3c2)n1Cc1ccc(-c2nnn[nH]2)cc1 [Compound 27, 2-amino-7-(2-naphthylmethyl)-3-[4-(1H-tetraazol-5-yl)benzyl]-3,7-dihydro-6H-purin-6-one] | 19 µM
Nc1nc(=O)c2c(ncn2Cc2ccc3ccccc3c2)n1Cc1ccc2c(c1)C(=O)c1ccccc1C2=O [Compound 19, 2-{[2-amino-7-(2-naphthylmethyl)-6-oxo-6,7-dihydro-3H-purin-3-yl]methyl}anthra-9,10-quinone] | 4 µM
Nc1nc(=O)c2c(ncn2Cc2ccc(-c3ccc(CCl)cc3)cc2)n1Cc1ccc(-c2ccc(CCl)cc2)cc1 [Compound 3, 2-amino-3,7-bis{[4′-(chloromethyl)[1,1′-biphenyl]-4-yl]methyl}-3,7-dihydro-6H-purin-6-one] | 5 µM
Nc1nc(=O)c2c(ncn2Cc2ccc3ccccc3c2)n1Cc1ccc(Cl)c(Cl)c1 [Compound 7, 2-amino-3 (3,4-dichlorobenzyl)-7-(2-naphthylmethyl)-3,7-dihydro-6H-purin-6-one] | 3 µM
Nc1nc(=O)c2c(ncn2Cc2ccc(-c3ccccc3)cc2)n1Cc1ccc(-c2ccccc2)cc1 [Compound 2, 2-amino-3,7-bis-[(1,1′-biphenyl)-4-ylmethyl]-3,7-dihydro-6H-purin-6-one] | 3 µM
Nc1nc(=O)c2c(ncn2Cc2ccc3ccccc3c2)n1Cc1ccc(-c2ccccc2)cc1 [Compound 5, 2-amino-3-([1,1-biphenyl]-4-ylmethyl)-7-(2-naphthylmethyl)-3,7-dihydro-6H-purin-6-one] | 2 µM
Nc1nc(=O)c2c(ncn2Cc2ccc3ccccc3c2)n1Cc1cccc(Oc2ccccc2)c1 [Compound 8, 2-amino-3-(3-phenoxybenzyl)-7-(2-naphthylmethyl)-3,7-dihydro-6H-purin-6-one] | 3 µM
